Results published in patent US4761477A (priority 1984, dated 1988).
Read-outs that look alike come from different tables or passages of the source.

Experiments:
[1] = test system: cholera toxin; type: in vivo, SPF male Wister rats; details: secreta measured after 5 hours, rats
[2] = test system: adenylate cyclase; assay: Inhibition of adenylate cyclase activity of intestinal epithetial cells; type: biochemical; details: 200 nM, mice
Experimental: (§1) At 200 nM concentration, 13-propylberberin bisulfate inhibits about 50% of adenylate cyclase activity of intestinal epithetial cells or splenic lymphocytes in mice.

[3] = Solubility in water; type: physicochemical
[4] = test system: adenylate cyclase; assay: Inhibition of adenylate cyclase activity of splenic lymphocytes; type: biochemical; details: 200 nM, mice
Experimental: as §1

[5] = Stability: test compounds heated at 100° C. for 8 hours; type: physicochemical; details: for stability (in words): compared with the conventionally-known halides; for Changes in appearance / Percent remainder (%): heated at 100° C. for 8 hours; for Percent remainder (%): 480 min
Experimental: Test compounds were heated at 100° C. for 8 hours. Changes in their appearance and their percent remainders were studied.

| Structure (SMILES) | Solubility [3] | stability (in words) [5] | Changes in appearance [5] | Percent remainder (%) [5] [%] | also measured |
| --- | --- | --- | --- | --- | --- |
| CCCc1c2[n+](cc3c(OC)c(OC)ccc13)CCc1cc3c(cc1-2)OCO3 [13-Propylberberine bisulfate, 13-propylberberine bisulfate] | soluble | extremely stable | no changes | 100.0 | Inhibition rate (%) ([1]; 0.5 mg/kg injected into ligated tract with 20 μg cholera toxin): 13.0%; Inhibition rate (%) ([1]; 2 mg/kg injected into ligated tract with 20 μg cholera toxin): 40.0%; inhibition of adenylate cyclase activity [2]: about 50%; Solubility ([3]; listed as 13-propylberberine sulfate): readily soluble in water; inhibition of adenylate cyclase activity [4]: about 50% |
| CCCc1c2[n+](cc3c(OC)c(OC)ccc13)CCc1cc3c(cc1-2)OCO3 [13-Propylberberine bromide, 13-propylberberine bromide, reference compound] |  |  |  | 57.0 |  |
| CCCc1c2[n+](cc3c(OC)c(OC)ccc13)CCc1cc3c(cc1-2)OCO3 [13-Propylberberine chloride, reference compound] |  |  |  | 48.7 |  |
| CCCc1c2[n+](cc3c(OC)c(OC)ccc13)CCc1cc3c(cc1-2)OCO3 [13-Propylberberine iodide, reference compound] |  |  |  | 52.1 |  |
| CCCc1c2[n+](cc3c(OC)c(OC)ccc13)CCc1cc3c(cc1-2)OCO3 [13-Propylberberine primary phosphate, 13-propylberberine primary phosphate] | soluble | extremely stable | no changes | 99.8 | Solubility ([3]; listed as 13-propylberberine phosphate): readily soluble in water |
| COc1ccc2cc3[n+](cc2c1OC)CCc1cc2c(cc1-3)OCO2 [Berberine chloride, reference compound] |  |  |  |  | Inhibition rate (%) ([1]; 20 mg/kg injected into ligated tract with 20 μg cholera toxin): 8.0% |
